Here are results for six molecules from US8449864B2 (The Board of Trustees of the Leland Stanford Junior …, priority 2006, dated 2013).

For one assay, the system named is PLCs containing PMCs. As to the kind of experiment: NT degradation by peritoneal lavage cells (PLCs) containing peritoneal mast cells. In kind it is cell-based, mouse. To be noted: Kit+/+ PLCs pre-treated 15 min at 37° C. (chym 100 μM, CFp 10 μM, PCI 10 μg/ml, p03 100 nM); NT 10 μM, 30 min. How it is done:
FIG. 5. Neurolysin and carboxypeptidase inhibitors prevent NT degradation by peritoneal mast cells. Kit^+/+ PLCs containing 5×10^4 PMCs were pre-treated for 15 min at 37° C. with one of the following protease inhibitors: chymostatin (chym, chymase inhibitor at 100 μM), CFp-Ala-Ala-Phe-pAB (CFp, […] at 10 μM only for PLCs), potato carboxypeptidase inhibitor (PCI, carboxypeptidase inhibitor at 10 μg/ml) and phosphodiepryl 03 (p03, neurolysin inhibitor at 100 nM for PLCs. Cells were then incubated with NT (10 μM) for 30 min at 37° C. Results are the percentage of NT remaining after incubation with cells compared to the starting concentration of NT (n=4-9 per group).
FIG. 12. (a), PLCs containing 1×10^4 PMCs obtained from either wild type C57BL/6 mice, Ntsr1-deficient (Ntsr1^−/−) mice or Ntsr2-deficient (Ntsr2^−/−) mice were incubated for 2 h with ^3H-5-hydroxytryptamine (3H-serotonin) at 37° C. and stimulated for 15 min at 37° C. with either ET-1 (4 μM) or NT (10 μM). (b), PLCs containing 1×10^4 PMCs obtained from C57BL/6 mice were incubated for 2 h with ^3H-serotonin and stimulated for 15 min with either ET-1 (4 μM) or NT (10 μM). In a separate set of experiments, cells were pre-incubated with BAPTA-AM (Sigma) ([…], 15 min at […]) before the addition of the stimuli. Results are mean ±SEM of 3 experiments. (c), mMC-CPA activity was measured in supernatants obtained from Kit^+/+ PLCs containing 5×10^4 PMCs that were stimulated for 30 min at 37° C. with either ET-1 (4 μM) or NT (10 μM). (d), PLCs containing 5×10^4 PMCs from C57BL/6J mice were pre-treated for 15 min at 37° C. with BAPTA-AM ([…], a Ca^2+ chelator that can reduce MC degranulation) and then incubated with NT (10 μM) for 30 min at 37° C. Results are expressed as the percentage of NT remaining after incubation with cells compared to that in samples of NT incubated in vehicle alone at 37° C. (data were pooled from triplicate determinations in two independent experiments that gave similar results). (e), Expression of mRNA for NT-receptors in the AtT20 neuroendocrine cell line, the mast cell line C1.MC/C57.1, C57BL/6J BMCMCs, Kit^+/+ BMCMCs and peritoneal mast cells purified from Kit^+/+ mice (PMCs).
NT, ET-1, C-reactive protein, and TNF measurements. Concentrations of NT, C-reactive protein, ET-1 and TNF were measured by ELISA (Bachem Peninsula Labs for NT; Biomedica, Vienna for C-reactive protein and ET-1; BD Biosciences for TNF). […] The detection limits for the ELISA kits were: 24 fmol/ml (NT), 0.048 fmol/ml (ET-1), 0.124 ng/ml (C-reactive protein) and […] (human TNF).

For a further assay, the system named is NTR1. The note with it: different tissues and cells from various species; cited from earlier work.
A further assay concerns PMCs. As to the kind of experiment: Internalization of rhodamine-labelled peptide by PMCs (flow cytometry, confocal microscopy). Type of assay: cell-based, mouse. On the procedure:
FIG. 11. […] P<0.0001 versus corresponding NT- or ET-1-injected groups. […] (b) Flow cytometry analysis and confocal microscopy of C57BL/6 PMCs incubated with NT-rhodamine (50 μM) (red) at 4° C. (0 min) or placed at 37° C. for 5 or 15 min. PMCs were identified among other PLCs by flow cytometry by staining of IgE bound to the MCs (green). […] (c) PLCs containing 5×10^4 PMCs from either C57BL/6, Ntsr1^−/− or Ntsr2^−/− mice were incubated with NT (10 μM) for 30 min at 37° C. Results are expressed as the percentage of NT remaining after incubation with cells compared to that in samples of NT incubated in vehicle alone at 37° C. (data were pooled from triplicate determinations in two independent experiments that gave similar results). (d,e) Changes in MAP vs. baseline levels (=“0”, measured 3 min after injection of 300 μl saline, i.p.) at various times after injection of NT (6 nmol in 300 μl saline, i.p.) (d), and NT levels in the peritoneal fluids of these mice at 30 min after injection (e), in Kit^W/W-v mice that had been engrafted i.p. with BMCMCs of C57BL/6-Ntsr1^+/+ or -Ntsr1^−/− origin. (f) Survival after CLP (50% ligation; single puncture with 22 G needle) in Kit^W/W-v mice that had been engrafted i.p. with BMCMCs of C57BL/6-Ntsr1^+/+ or -Ntsr1^−/− origin.
FIGS. 19a-19f. (a-c) Flow cytometry analysis and (d, e) confocal microscopy of Ntsr+/+ (a, c) or Ntsr1−/−2−/− (b) PMCs pre-loaded with either NT-rhodamine (a, b) or scrambled peptide-rhodamine (c) ([…]) (red) that were placed at 37° C. for the indicated times. Control cells pre-loaded with either NT-rhodamine or scrambled peptide-rhodamine were maintained at 4° C. (“0 min”). PMCs were identified among other peritoneal lavage cells (PLCs) in confocal microscopy by green staining of IgE bound to the PMC surface and in flow cytometry by staining of c-Kit receptors. (f) Fold increase in mean fluorescence intensity by flow cytometry in PMCs versus other (non mast cell) PLCs obtained from Ntsr+/+ mice incubated for 15 min at 37° C. with NT-rhodamine when compared to control cells that were maintained at 4° C. for 15 min. Data are representative of (a-e) or pooled from (f) the three experiments performed, each of which gave similar results.
Flow cytomety and confocal microscopy. Cells were incubated for 16 h in DMEM+10% FCS+2 μg/ml IgE (hybridoma H1-DNP-ε26). Cells were washed and resuspended in DMEM+10% fetal calf serum (FCS)+NT-rhodamine (AnaSpec) (50 μM) and placed at 4° C. for 1 h. Some cells then were placed at 37° C. for 5 or 15 min. IgE Abs bound to PMCs were stained with FITC-conjugated anti-mouse IgE Abs (BD Biosciences). Levels of surface IgE were analyzed by flow cytometry, as described above.

For a further assay, the target named is T1, neurolysin (NLN) (Mus musculus, UniProt Q91YP2).
T1 construct: membrane and cytosol preparations obtained from Kit^+/+ BMCMCs (2×10^6 cells/preparation); endogenous in cells; host or cells: Kit+/+ mouse bone marrow-derived cultured mast cells (BMCMCs), membrane and cytosol fractions
As to the kind of experiment: NT degradation by membrane and cytosol preparations of BMCMCs. In kind it is biochemical. To be noted: Pro-Ile 10 mM; NT 10 μM. How it is done: FIG. 8. MC-associated neurolysin (NLN) contributes to the MCs' ability to reduce NT-induced hypotension. (a) Identification of NLN in the membrane and cytosol fractions of C1.MC/C57.1 MCs and C57BL/6J BMCMCs. […] Results are expressed as the percentage of NT remaining after incubation with membrane or cytosol preparations compared to that in samples of NT incubated in vehicle alone (n=3). (c, d) Degradation of NT (10 μM) by A23187 (5 μM)-activated Kit^+/+ BMCMCs (2×10^5) that were pre-treated with either empty vector, Neurolysin-short hairpin RNA (NLN-shRNA) or mouse MC carpoxypeptidase A-short hairpin RNA (mMC-CPA-shRNA). Cells were incubated with NT for 30 min at 37° C. Results are expressed as the percentage of NT remaining in the samples compared to that in samples of NT incubated in vehicle alone at 37° C. (n=3). (e) Changes in MAP versus baseline levels (=“0”, measured 3 min after injection of 300 μl saline, i.p.) at various times after injection of NT (6 nmol in 300 μl saline, i.p.) in Kit^W/W-v mice which had been engrafted i.p. with Kit^+/+ BMCMCs treated with either empty vector (empty vector MCs→Kit^W/W-v), NLN-shRNA (NLN-shRNA MCs→Kit^W/W-v) or mMC-CPA-shRNA (mMC-CPA-shRNA MCs→Kit^W/W-v). (f) MCs in the peritoneal cavity (arrows, MCs; scale bars, 100 μm; May Grunwald-modified Giemsa stain) and mesentery (arrows, MCs; scale bars, 100 μm; Czaba stain). […]

Peptide text beside a SMILES is read from it.

T1 sequence (Q91YP2 38-704): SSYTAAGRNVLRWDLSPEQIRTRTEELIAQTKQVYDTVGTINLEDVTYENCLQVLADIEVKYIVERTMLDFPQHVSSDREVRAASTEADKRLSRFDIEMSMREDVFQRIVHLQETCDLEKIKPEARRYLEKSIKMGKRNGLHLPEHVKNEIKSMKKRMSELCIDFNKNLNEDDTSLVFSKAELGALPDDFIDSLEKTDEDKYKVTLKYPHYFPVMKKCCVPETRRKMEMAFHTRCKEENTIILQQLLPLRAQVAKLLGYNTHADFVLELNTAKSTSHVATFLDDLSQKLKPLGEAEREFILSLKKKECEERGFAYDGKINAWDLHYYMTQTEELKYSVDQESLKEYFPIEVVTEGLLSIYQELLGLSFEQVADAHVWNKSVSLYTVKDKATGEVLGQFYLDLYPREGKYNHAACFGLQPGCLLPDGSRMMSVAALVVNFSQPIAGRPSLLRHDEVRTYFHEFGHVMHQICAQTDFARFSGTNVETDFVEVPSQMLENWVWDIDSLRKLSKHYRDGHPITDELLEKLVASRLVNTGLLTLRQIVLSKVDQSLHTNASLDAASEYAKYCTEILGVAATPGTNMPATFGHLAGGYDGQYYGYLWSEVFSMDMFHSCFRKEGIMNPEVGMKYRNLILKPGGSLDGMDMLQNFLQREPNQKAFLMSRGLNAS

With “PCI: potato carboxypeptidase inhibitor; mouse MC carboxypeptidase A (mMC-CPA) inhibitor (QQHADPICNKPCKTHDDCSGAWFCQACWNSARTCGPYVG; UniProt P01075 1-39, looked up)”, in the assay with PLCs containing PMCs, the “NT degradation by PLCs in presence of protease inhibitor” value (from here on “NT degradation … of protease inhibitor”) is listed as “significantly inhibited”.

For `COc1cccc(OC)c1-c1cc(C(=O)NC2(C(=O)O)C3CC4CC(C3)CC2C4)nn1-c1ccnc2cc(Cl)ccc12` (stereo not drawn) [SR48692], in the assay with NTR1, the “affinity for NTR1” value is listed as “nanomolar affinity”.

For the molecule NT-rhodamine: rhodamine-labelled NT, the “binding and internalization by PMCs” value in the assay on PMCs (C57BL/6 PMCs, 50 μM, 37° C. for 5 or 15 min) was “bound and internalized”. Moreover, in the assay with PMCs (Ntsr1−/−2−/− PMCs, 10 µM, 37° C.), the “internalization by PMCs lacking Ntsr1 and Ntsr2” value is on record as “peptide internalization did not occur”. In addition, the “uptake by PMCs compared with non mast cells of the peritoneal cavity” value with PMCs (Ntsr+/+ PLCs, 15 min at 37° C.) is on record as “more efficient”. The “internalization by PMCs” value with PMCs (Ntsr+/+ PMCs, 10 µM, 37° C.) is on record as “able to internalize”.

As to `CC[C@H](C)[C@H](NC(=O)[C@@H]1CCCN1)C(=O)O` [Pro-Ile] (H-Pro-Ile-OH), the “NT degradation by membrane or cytosol preparations of BMCMCs” value at neurolysin (NLN) is given as “almost completely inhibited”.

`CC(NC(=O)C(C)NC(CCc1ccccc1)C(=O)O)C(=O)NC(Cc1ccccc1)C(=O)Nc1ccc(C(=O)O)cc1` (stereo not drawn) [CFp-Ala-Ala-Phe-pAB]: the “NT degradation … of protease inhibitor” value in the assay with PLCs containing PMCs is listed as “did not prevent NT degradation”.

On to `CC(C)C[C@H](NC(=O)[C@@H](NC(=O)N[C@@H](Cc1ccccc1)C(=O)O)[C@@H]1CCN=C(N)N1)C(=O)N[C@H](C=O)Cc1ccccc1` [chymostatin], for which, in the assay with PLCs containing PMCs, the “NT degradation … of protease inhibitor” value was “did not prevent NT degradation”.
